Laboratory results: PubChem BioAssay (NCI)
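Cultured in 96-well plates, cells were exposed to test compound for 48 hours across five concentrations. Abbreviation: GI50, concentration required for 50% inhibition of growth. TGI denotes the concentration required for complete inhibition of growth.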

Key:
Experiment in all cases: NCI tumour cell line growth inhibition, 48 h
[1] = tested on: SR leukemia
[2] = tested on: TK-10 renal
[3] = tested on: MALME-3M melanoma
[4] = tested on: MCF7 breast
[5] = tested on: LOX IMVI melanoma
[6] = tested on: DU-145 prostate
[7] = tested on: MOLT-4 leukemia
[8] = tested on: M14 melanoma
[9] = tested on: RPMI-8226 leukemia
[10] = tested on: MDA-MB-435
[11] = tested on: HCC-2998 colon
[12] = tested on: T-47D breast
[13] = tested on: CCRF-CEM leukemia
[14] = tested on: COLO 205 colon
[15] = tested on: SW-620 colon
[16] = tested on: SK-MEL-28 melanoma
[17] = tested on: SNB-75 CNS
[18] = tested on: HCT-15 colon
[19] = tested on: OVCAR-8 ovarian
[20] = tested on: HT29 colon
[21] = tested on: UACC-257 melanoma
[22] = tested on: K-562 leukemia
[23] = tested on: KM12 colon
[24] = tested on: SN12C renal
[25] = tested on: IGROV1 ovarian
[26] = tested on: SK-OV-3 ovarian
[27] = tested on: HL-60(TB) leukemia
[28] = tested on: EKVX NSCLC
[29] = tested on: SF-295 CNS
[30] = tested on: SF-268 CNS
[31] = tested on: HOP-92 NSCLC
[32] = tested on: MDA-MB-231 breast
[33] = tested on: MDA-N
[34] = tested on: RXF 393 renal
[35] = tested on: A549 NSCLC
[36] = tested on: PC-3 prostate
[37] = tested on: 786-0 renal
[38] = tested on: UACC-62 melanoma
[39] = tested on: OVCAR-4 ovarian
[40] = tested on: CAKI-1 renal
[41] = tested on: HOP-62 NSCLC
[42] = tested on: SK-MEL-5 melanoma
[43] = tested on: NCI-H23 lung
[44] = tested on: SK-MEL-2 melanoma
[45] = tested on: NCI-H522 lung
[46] = tested on: OVCAR-3 ovarian
[47] = tested on: HCT-116 colon
[48] = tested on: ACHN renal
[49] = tested on: UO-31 renal
[50] = tested on: NCI-H226 lung
[51] = tested on: NCI-H460 lung
[52] = tested on: SF-539 CNS
[53] = tested on: NCI/ADR-RES ovarian
[54] = tested on: U251 CNS
[55] = tested on: OVCAR-5 ovarian
[56] = tested on: HS 578T breast
[57] = tested on: A498 renal
[58] = tested on: SNB-19 CNS

Work on COc1cccc(Nc2nc3c([nH]2)c(=O)n(C)c(=O)n3C)c1 yielded a TGI [1] greater than 10 µM, a TGI [2] greater than 10 µM and a TGI [3] greater than 10 µM. The TGI [4] was greater than 10 µM, the TGI [5] was greater than 10 µM and the TGI [6] was greater than 10 µM. The TGI [7] was greater than 10 µM, the TGI [8] was greater than 10 µM and the TGI [9] was greater than 10 µM. It also gave a TGI [10] greater than 10 µM, a TGI [11] greater than 10 µM and a TGI [12] greater than 10 µM. The TGI [13] was greater than 10 µM, the TGI [14] was greater than 10 µM and the TGI [15] was greater than 10 µM. It also gave a TGI [16] greater than 10 µM, a TGI [17] greater than 10 µM and a TGI [18] greater than 10 µM. The TGI [19] was greater than 10 µM, the TGI [20] was greater than 10 µM and the TGI [21] was greater than 10 µM. The TGI [22] was greater than 10 µM, the TGI [23] was greater than 10 µM and the TGI [24] was greater than 10 µM. It also gave a TGI [25] greater than 10 µM, a TGI [26] greater than 10 µM and a TGI [27] greater than 10 µM. The TGI [28] was greater than 10 µM, the TGI [29] was greater than 10 µM and the TGI [30] was greater than 10 µM. The TGI [31] was greater than 10 µM, the TGI [32] was greater than 10 µM and the TGI [33] was greater than 10 µM. For the same molecule, the TGI [34] was greater than 10 µM, the TGI [35] was greater than 10 µM and the TGI [36] was greater than 10 µM. The TGI [37] was greater than 10 µM, the TGI [38] was greater than 10 µM and the TGI [39] was greater than 10 µM. The TGI [40] was greater than 10 µM, the TGI [41] was greater than 10 µM and the TGI [42] was greater than 10 µM. For the same molecule, the TGI [43] was greater than 10 µM.
O=C1C2=C(Nc3cc([N+](=O)[O-])ccc3N2)OC1c1ccc(C2OC3=C(Nc4ccc([N+](=O)[O-])cc4N3)C2=O)cc1 (stereo unspecified) gave a GI50 [1] of 19.4 µM, a GI50 [4] of 53.3 µM and a GI50 [44] of 63.3 µM. For the same molecule, the GI50 [7] was 22 µM, the GI50 [9] was 53.6 µM and the GI50 [10] was 22.1 µM. It also gave a TGI [10] of 53.4 µM, a GI50 [12] of 48 µM and a GI50 [14] of 19.7 µM. The TGI [14] was 45.1 µM, the GI50 [16] was 41.8 µM and the GI50 [45] was 6.12 µM. The GI50 [46] was 37.5 µM, the GI50 [20] was 98.9 µM and the GI50 [21] was 28 µM. It also gave a TGI [21] of 96.8 µM, a GI50 [22] of 19.1 µM and a GI50 [23] of 26.1 µM. The GI50 [27] was 184 nM, the TGI [27] was 1.09 µM and the GI50 [29] was 23.3 µM. It also gave a TGI [29] of 77.3 µM, a GI50 [47] of 79.9 µM and a GI50 [30] of 64.9 µM. It also gave a GI50 [33] of 42.8 µM, a GI50 [38] of 30.4 µM and a GI50 [42] of 38.9 µM.
With CCOP(=O)(COCCn1nc(Br)c(=O)[nH]c1=O)OCC the TGI [1] was greater than 100 µM, the TGI [3] was greater than 100 µM and the TGI [4] was greater than 100 µM. It also gave a TGI [5] greater than 100 µM, a TGI [6] greater than 100 µM and a TGI [44] greater than 100 µM. For the same molecule, the TGI [7] was greater than 100 µM, the TGI [48] was greater than 100 µM and the TGI [8] was greater than 100 µM. The TGI [9] was greater than 100 µM, the TGI [10] was greater than 100 µM and the TGI [11] was greater than 100 µM. It also gave a TGI [12] greater than 100 µM, a TGI [13] greater than 100 µM and a TGI [14] greater than 100 µM. It also gave a TGI [15] greater than 100 µM, a TGI [49] greater than 100 µM and a TGI [50] greater than 100 µM. For the same molecule, the TGI [16] was greater than 100 µM, the TGI [51] was greater than 100 µM and the TGI [17] was greater than 100 µM. It also gave a TGI [18] greater than 100 µM, a TGI [19] greater than 100 µM and a TGI [45] greater than 100 µM. The TGI [46] was greater than 100 µM, the TGI [21] was greater than 100 µM and the TGI [22] was greater than 100 µM. For the same molecule, the TGI [23] was greater than 100 µM, the TGI [52] was greater than 100 µM and the TGI [24] was greater than 100 µM. The TGI [25] was greater than 100 µM, the TGI [27] was greater than 100 µM and the TGI [28] was greater than 100 µM. It also gave a TGI [53] greater than 100 µM, a TGI [30] greater than 100 µM and a TGI [31] greater than 100 µM. The TGI [54] was greater than 100 µM, the TGI [55] was greater than 100 µM and the TGI [32] was greater than 100 µM. It also gave a TGI [56] greater than 100 µM, a TGI [33] greater than 100 µM and a TGI [34] greater than 100 µM. For the same molecule, the TGI [35] was greater than 100 µM, the TGI [36] was greater than 100 µM and the TGI [57] was greater than 100 µM. It also gave a TGI [58] greater than 100 µM, a TGI [40] greater than 100 µM and a TGI [41] greater than 100 µM. The TGI [42] was greater than 100 µM and the TGI [43] was greater than 100 µM.
With CC1=NN(c2cccc(Cl)c2)C2(C1=Cc1ccc(N(C)C)cc1)C(Cl)C(=O)N2c1nc2ccccc2s1 (stereo unspecified) the TGI [1] was greater than 100 µM, the TGI [2] was greater than 100 µM and the TGI [4] was greater than 100 µM. It also gave a TGI [5] greater than 100 µM, a TGI [6] greater than 100 µM and a TGI [44] greater than 100 µM. The TGI [7] was greater than 100 µM, the TGI [48] was greater than 100 µM and the TGI [8] was greater than 100 µM. It also gave a TGI [9] greater than 100 µM, a TGI [10] of 72.3 µM and a TGI [11] of 41.8 µM. For the same molecule, the TGI [12] was greater than 100 µM, the TGI [13] was greater than 100 µM and the TGI [15] was greater than 100 µM. It also gave a TGI [49] greater than 100 µM, a TGI [50] greater than 100 µM and a TGI [16] greater than 100 µM. For the same molecule, the TGI [51] was greater than 100 µM, the TGI [18] was greater than 100 µM and the TGI [19] was greater than 100 µM. For the same molecule, the TGI [45] was 43.1 µM, the TGI [46] was greater than 100 µM and the TGI [20] was greater than 100 µM. For the same molecule, the TGI [21] was greater than 100 µM, the TGI [22] was greater than 100 µM and the TGI [23] was 38.5 µM. For the same molecule, the TGI [52] was greater than 100 µM, the TGI [25] was greater than 100 µM and the TGI [26] was greater than 100 µM. For the same molecule, the TGI [27] was greater than 100 µM, the TGI [28] was greater than 100 µM and the TGI [29] was greater than 100 µM. The TGI [53] was greater than 100 µM, the TGI [47] was greater than 100 µM and the TGI [30] was 52.4 µM. It also gave a TGI [31] of 64.7 µM, a TGI [54] greater than 100 µM and a TGI [55] greater than 100 µM. For the same molecule, the TGI [32] was greater than 100 µM, the TGI [56] was greater than 100 µM and the TGI [33] was greater than 100 µM. The TGI [34] was 46 µM, the TGI [36] was greater than 100 µM and the TGI [37] was greater than 100 µM. The TGI [57] was greater than 100 µM, the TGI [39] was greater than 100 µM and the TGI [40] was greater than 100 µM. For the same molecule, the TGI [41] was greater than 100 µM, the TGI [42] was greater than 100 µM and the TGI [43] was greater than 100 µM.
